The structures appear in SMILES notation.

The compound `CC(C)c1nc2c(c(-c3ccc(F)cc3)c1/C=C/[C@@H](O)C[C@@H](O)CC(=O)O)CCCN2S(C)(=O)=O` [Example 22, (E)-(3R,5S)-7-[4-(4-Fluorophenyl)-2-isopropyl-8-methanesulfonyl-5,6,7,8-tetrahydro-[1,8]naphthyridin-3-yl]-3,5-dihydroxyhept-6-enoic Acid] yielded a melting point of 184 to 186 °C.

The record behind these values is patent US7420059B2, “HMG-CoA reductase inhibitors and method” (Bristol-Myers Squibb Company, priority 2003, dated 2008).
